According to ChEMBL document CHEMBL1158296, “(Hydroxymethyl)acylfulvene: an illudin derivative with superior antitumor properties” (J Nat Prod, 1996):
Activity calls are given as the source filed them. The rule behind the calls is not given here.

Key:
HL-60 = experiment: Cytotoxicity against human HL60 cells after 48 hrs by trypan blue exclusion method; format: functional, cell-based
MV522 = experiment: Antitumor activity against human MV522 cells xenografted BALB/c nu/nu mouse assessed as induction of tumor regression at 10 mg/kg, iv administered three times per week for 3 weeks; format: functional, organism-based; design: dose 10 mg/kg
[1] = Antitumor activity against human MV522 cells xenografted BALB/c nu/nu mouse assessed as increase in life span at 10 mg/kg, iv administered three times per week for 3 weeks; format: functional
[2] = Homo sapiens, HL-60, 48 h, read-out: IC50

| SMILES | IC50 (HL-60; [2]) [nM] | also measured |
| --- | --- | --- |
| CC1=C(CSc2ccc(C)cc2)C2=C(C)C3(CC3)[C@@](C)(O)C(=O)C2=C1 | – | IC50 (HL-60; hl-60): ND(Insoluble) |
| CC1=C(CO)C2=C(C)C3(CC3)[C@@](C)(O)C(=O)C2=C1 [IROFULVEN] | 73 | Activity (MV522): Active; Activity [1]: 150% |
| CC1=C(Cc2ccc(O)cc2)C2=C(C)C3(CC3)[C@@](C)(O)C(=O)C2=C1 | 380 | – |
| COc1ccc(CC2=C(C)C=C3C(=O)[C@](C)(O)C4(CC4)C(C)=C32)cc1 | 1050 | – |
| CC1=CC2=C(C)C3(CC3)[C@@](C)(O)C(=O)C2=C1 [ACYLFULVENE] | 415 | – |
| CC1=C2C(=O)C(C)(C)C=C2C(=O)[C@](C)(O)C12CC2 [DEHYDROILLUDIN M] | 296 | – |
